# Laboratory results published in patent US9884063B2, “Amido-substituted azole compounds” (Bayer Pharma Aktiengesellschaft, priority 2014, dated 2018).
# Biological target: T1, TNKS2 (Homo sapiens, UniProt Q9H2K2)
# T1 sequence (Q9H2K2 1-1166): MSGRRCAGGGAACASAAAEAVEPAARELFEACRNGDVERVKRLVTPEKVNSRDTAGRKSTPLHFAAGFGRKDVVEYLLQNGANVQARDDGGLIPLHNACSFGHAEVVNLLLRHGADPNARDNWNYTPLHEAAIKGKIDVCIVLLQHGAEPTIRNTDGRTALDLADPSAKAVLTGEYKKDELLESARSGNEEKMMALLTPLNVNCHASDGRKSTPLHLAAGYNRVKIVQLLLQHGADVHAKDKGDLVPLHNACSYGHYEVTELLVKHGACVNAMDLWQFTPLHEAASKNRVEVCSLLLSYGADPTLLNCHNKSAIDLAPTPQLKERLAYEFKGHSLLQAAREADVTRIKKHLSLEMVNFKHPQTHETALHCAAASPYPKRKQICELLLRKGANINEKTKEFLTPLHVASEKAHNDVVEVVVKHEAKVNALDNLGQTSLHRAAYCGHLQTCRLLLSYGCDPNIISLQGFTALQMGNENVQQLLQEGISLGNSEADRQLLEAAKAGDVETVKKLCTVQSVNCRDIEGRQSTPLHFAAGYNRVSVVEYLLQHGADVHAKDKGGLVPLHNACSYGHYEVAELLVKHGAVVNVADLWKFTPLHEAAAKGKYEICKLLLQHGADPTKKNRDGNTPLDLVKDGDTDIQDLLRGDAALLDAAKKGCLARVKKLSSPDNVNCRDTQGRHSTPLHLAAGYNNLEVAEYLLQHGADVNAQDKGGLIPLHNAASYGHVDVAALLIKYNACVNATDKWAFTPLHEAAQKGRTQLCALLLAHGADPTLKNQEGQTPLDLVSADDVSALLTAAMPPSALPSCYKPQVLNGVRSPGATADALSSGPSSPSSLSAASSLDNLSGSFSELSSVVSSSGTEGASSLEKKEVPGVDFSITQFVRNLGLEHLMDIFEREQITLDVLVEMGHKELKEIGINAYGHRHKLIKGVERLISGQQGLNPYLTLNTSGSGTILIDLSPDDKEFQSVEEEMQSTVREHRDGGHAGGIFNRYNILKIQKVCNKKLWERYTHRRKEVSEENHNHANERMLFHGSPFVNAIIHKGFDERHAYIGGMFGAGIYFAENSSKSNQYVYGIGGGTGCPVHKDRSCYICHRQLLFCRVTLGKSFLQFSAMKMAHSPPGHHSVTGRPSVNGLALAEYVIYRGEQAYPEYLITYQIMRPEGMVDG
# Assay: Modified TNKS2 Assay 2 (auto-parsylation, [3H]-NAD+ SPA)
# Format: biochemical
# Conditions: 6 nM TNKS2, 96 well
row,IC50,SMILES
1,0.37 µM,"COC(=O)c1nc[nH]c1C(=O)Nc1ccc(NC(=O)c2ccccc2Cl)c(OC)c1 [Example 98, methyl 5-({4-[(2-chlorobenzoyl)amino]-3-methoxyphenyl}carbamoyl)-1H-imidazole-4-carboxylate]"
2,0.04 µM,"COc1cc(NC(=O)c2[nH]cnc2C(=O)NCCN(C)C)ccc1NC(=O)c1ccc(F)cc1Cl [Example 96, N^5-{4-[(2-chloro-4-fluorobenzoyl)amino]-3-methoxyphenyl}-N^4-[2-(dimethylamino)ethyl]-1H-imidazole-4,5-dicarboxamide]"
3,0.04 µM,"CN(C)CCNC(=O)c1nc[nH]c1C(=O)Nc1ccc(NC(=O)c2ccccc2Cl)nc1 [Example 113, N^5-{6-[(2-chlorobenzoyl)amino]pyridin-3-yl}-N^4-[2-(dimethylamino)ethyl]-1H-imidazole-4,5-dicarboxamide]"
4,0.16 µM,"COc1cc(NC(=O)c2[nH]cnc2C(=O)NCCN(C)C)ccc1NC(=O)c1ccccc1Cl [Example 100, N^5-{4-[(2-chlorobenzoyl)amino]-3-methoxyphenyl}-N^4-[2-(dimethylamino)ethyl]-1H-imidazole-4,5-dicarboxamide]"
5,0.05 µM,"Cc1cc(NC(=O)c2[nH]cnc2C(=O)NCCN2CCCCC2)ccc1NC(=O)c1ccccc1Cl [Example 89, N^5-{4-[(2-chlorobenzoyl)amino]-3-methylphenyl}-N^4-[2-(piperidin-1-yl)ethyl]-1H-imidazole-4,5-dicarboxamide]"
6,0.005 µM,"COc1cc(NC(=O)c2[nH]cnc2C(=O)NCCN2CCCCC2)ccc1NC(=O)c1ccc(F)cc1Cl [Example 97, N^5-{4-[(2-chloro-4-fluorobenzoyl)amino]-3-methoxyphenyl}-N^4-[2-(piperidin-1-yl)ethyl]-1H-imidazole-4,5-dicarboxamide]"
7,> 10 µM,"CNC(=O)c1[nH]c(C(C)C)nc1C(=O)Nc1ccc(NC(=O)c2ccc(F)cc2Cl)cc1 [Example 106, N^4-{4-[(2-chloro-4-fluorobenzoyl)amino]phenyl}-2-isopropyl-N^5-methyl-1H-imidazole-4,5-dicarboxamide]"
8,0.37 µM,"CNC(=O)c1nc[nH]c1C(=O)Nc1ccc(NC(=O)c2ccccc2Cl)nc1 [Example 112, N^5-{6-[(2-chlorobenzoyl)amino]pyridin-3-yl}-N^4-methyl-1H-imidazole-4,5-dicarboxamide]"
9,0.5 µM,"COC(=O)c1nc[nH]c1C(=O)Nc1ccc(NC(=O)c2ccc(F)cc2Cl)c(OC)c1 [Example 94, methyl 5-({4-[(2-chloro-4-fluorobenzoyl)amino]-3-methoxyphenyl}carbamoyl)-1H-imidazole-4-carboxylate]"
10,3.4 µM,"COC(=O)c1nc[nH]c1C(=O)Nc1ccc(NC(=O)c2ccccc2Cl)c(C)c1 [Example 86, methyl-5-({4-[(2-chlorobenzoyl)amino]-3-methylphenyl}carbamoyl)-1H-imidazole-4-carboxylate]"
11,0.47 µM,"CNC(=O)c1nc[nH]c1C(=O)Nc1ccc(NC(=O)c2ccc(F)cc2Cl)c(OC)c1 [Example 95, N^5-{4-[(2-chloro-4-fluorobenzoyl)amino]-3-methoxyphenyl}-N^4-methyl-1H-imidazole-4,5-dicarboxamide]"
12,> 10 µM,"COC(=O)c1nc[nH]c1C(=O)Nc1ccc(NC(=O)c2ccc(F)cc2)c(OC)c1 [Example 102, methyl 5-({4-[(4-fluorobenzoyl)amino]-3-methoxyphenyl}carbamoyl)-1H-imidazole-4-carboxylate]"
